{"source": "patent US6384070B2", "about": "“Indole derivatives useful as endothelin receptor antagonists” (Pfizer Inc., priority 1996, dated 2002)"}
{"molecular_target": "T1, cloned human ETA receptor (Homo sapiens, UniProt P25101)", "T1 sequence (P25101 21-427)": "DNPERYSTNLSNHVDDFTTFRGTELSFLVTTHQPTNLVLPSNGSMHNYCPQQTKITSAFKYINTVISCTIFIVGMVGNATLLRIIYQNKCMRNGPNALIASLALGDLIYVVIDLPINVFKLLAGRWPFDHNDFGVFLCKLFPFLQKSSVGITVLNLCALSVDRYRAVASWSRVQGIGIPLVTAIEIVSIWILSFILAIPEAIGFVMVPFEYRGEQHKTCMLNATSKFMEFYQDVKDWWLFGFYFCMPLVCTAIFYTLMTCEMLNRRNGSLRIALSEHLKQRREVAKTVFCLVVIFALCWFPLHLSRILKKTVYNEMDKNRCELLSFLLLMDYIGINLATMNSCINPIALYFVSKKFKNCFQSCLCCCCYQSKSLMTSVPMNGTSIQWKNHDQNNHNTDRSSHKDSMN", "test": "Test A binding assay: competition with 125I-ET-1, binding to ETA receptors", "details": "[125I]Tyr13 ET-1 displacement, 37° C., 2 hours", "procedure": "Competition between test compounds and ^125I-ET-1 binding to human endothelin receptors is determined as follows.\n25 ul of a 30 pM solution of [^125I]Tyr^13 ET-1 (specific activity 2,200 Ci/mM) is mixed with 25 μl samples of test compound (final concentrations in the range 0.1 nM-50.000 nM). 200 μl of a solution containing cloned human ETA receptor (0.75 pmoles receptor protein/ml). 50 mM Tris, 0.5 mM CaCl2, 0.1% human serum albumen. 0.1% bacitracin. 0.05% Tween 20, pH 7.4 is added. The solution is mixed at 37° C. for 2 hours. After the incubation, the unbound ligand is separated from receptor bound ligand by filtration with a Brandel cell harvester, followed by three washes of buffer. Filter papers are counted for radioactivity, and the IC50 (the concentration of test compound at which 50% of the radio-labelled compound is unbound) determined for the concentration range tested.", "units": {"IC50": "nM"}}
{"smiles": "COc1cc(C)ccc1S(=O)(=O)NC(=O)C(c1ccc2c(c1)OCO2)c1cn(C)c2cc(C(=O)O)ccc12", "note": "(centres unmarked) [Example 17, 3-{1-(1,3-benzodioxol-5-yl)-2-[(2-methoxy-4-methylphenyl)sulfonamido]-2-oxoethyl}-1-methyl-1H-6-indolecarboxylic acid]", "IC50": "< 500"}
{"smiles": "COc1cc(C)ccc1S(=O)(=O)NC(=O)C(c1ccc2c(c1)OCO2)c1cn(C)c2cc(CO)ccc12", "note": "(centres unmarked) [Example 65, 3-{1-(1,3-Benzodioxol-5-yl)-2-[(2-methoxy-4-methylphenyl)sulfonamido]-2-oxoethyl}-6-(hydroxymethyl)-1-methyl-1H-indole]", "IC50": "< 500"}
{"smiles": "COc1cc(C)ccc1S(=O)(=O)NC(=O)C(c1ccc2c(c1)OCO2)c1cn(C)c2cc(F)ccc12", "note": "(centres unmarked) [Example 83]", "IC50": "< 500"}
{"smiles": "COc1cc(C)ccc1S(=O)(=O)NC(=O)C(c1ccc2c(c1)OCO2)c1cn(C)c2cc(C(C)=O)ccc12", "note": "(centres unmarked) [Example 101, 6-Acetyl-3-{1-(1,3-benzodioxol-5-yl)-2-[(2-methoxy-4-methylphenyl)sulfonamido]-2-oxoethyl}-1-methyl-1H-indole]", "IC50": "< 500"}
{"smiles": "COCCn1cc(C(C(=O)NS(=O)(=O)c2ccc(C)cc2OC)c2ccc3c(c2)OCO3)c2ccc(C(N)=O)cc21", "note": "(centres unmarked) [Example 109, 3-{1-(1,3-benzodioxol-5-yl)-2-[(4-methyl-2-methoxyphenyl)sulfonamido]-2-oxoethyl}-1-(2-methoxyethyl)-1H-6-indolecarboxamide]", "IC50": "< 500"}
{"test_system": "not given", "test": "not given", "details": "not given"}
{"smiles": "Cn1cc(C(C(=O)O)c2ccc3c(c2)OCO3)c2cc(Br)ccc21", "note": "(centres unmarked) [Example 68, 2-(1,3-Benzodioxol-5-yl)-2-(5-bromo-1-methyl-1H-3-indolyl)acetic acid]", "melting point": "191 to 193 °C"}
{"smiles": "COc1cc(C)ccc1S(=O)(=O)NC(=O)C(c1ccc2c(c1)OCO2)c1cn(C)c2ccc(Br)cc12", "note": "(centres unmarked) [Example 79, 3-{1-(1,3-Benzodioxol-5-yl)-2-[(2-methoxy-4-methylphenyl)sulfonamido]-2-oxoethyl}-5-bromo-1-methyl-1H-indole]", "melting point": "145 to 150 °C"}
{"smiles": "COc1cc(C)ccc1S(=O)(=O)NC(=O)C(c1ccc2c(c1)OCO2)c1cn(C)c2cc(Br)ccc12", "note": "(centres unmarked) [Example 85, 3-{1-(1,3-benzodioxol-5-yl)-2-[(2-methoxy-4-methylphenyl)sulfonamido]-2-oxoethyl}-6-bromo-1-methyl-1H-indole]", "melting point": "145 to 150 °C (dec.)"}
{"smiles": "COc1cc(C)ccc1S(=O)(=O)NC(=O)C(c1cc(OC)c2c(c1)OCO2)c1cn(C)c2cc(Br)ccc12", "note": "(centres unmarked) [Example 92, 6-Bromo-3-{1-(7-methoxy-1,3-benzodioxol-5-yl)-2-[(2-methoxy-4-methylphenyl)sulfonamido]-2-oxoethyl}-1-methyl-1H-indole]", "melting point": "235 °C (dec.)"}
{"smiles": "Cc1ccc(S(=O)(=O)NC(=O)C(c2cc3c(cc2Cl)OCO3)c2cn(C)c3cc(CO)ccc23)cc1", "note": "(centres unmarked) [Example 99, 3-{1-(6-Chloro-1,3-benzodioxol-5-yl)-2-[(4-methylphenyl)sulfonamido]-2-oxoethyl}-6-(hydroxymethyl)-1-methyl-1H-indole]", "melting point": "207 to 209 °C"}
{"test_system": "neointimal formation", "test": "not given", "details": "S. Douglas et al. Circ Res, 75, 1994; cited from earlier work", "units": {"reduction in neointimal formation relative to control animals": "%"}}
{"smiles": "CCCOc1ccc2c(c1)[C@@H](c1ccc(OC)cc1OCC(=O)O)[C@H](C(=O)O)[C@H]2c1ccc2c(c1)OCO2", "note": "[SB-209670]", "reduction in neointimal formation relative to control animals": 50}
